Results taken from US20180155344A1, “TRICYCLIC PIPERIDINE COMPOUNDS” (ACTELION PHARMACEUTICALS LTD, priority 2015, published 2018).
Counter-ions that a name gives are not always drawn.

Molecular target: T1, human TPH1 (Homo sapiens, UniProt P17752)
T1 sequence (P17752 1-444): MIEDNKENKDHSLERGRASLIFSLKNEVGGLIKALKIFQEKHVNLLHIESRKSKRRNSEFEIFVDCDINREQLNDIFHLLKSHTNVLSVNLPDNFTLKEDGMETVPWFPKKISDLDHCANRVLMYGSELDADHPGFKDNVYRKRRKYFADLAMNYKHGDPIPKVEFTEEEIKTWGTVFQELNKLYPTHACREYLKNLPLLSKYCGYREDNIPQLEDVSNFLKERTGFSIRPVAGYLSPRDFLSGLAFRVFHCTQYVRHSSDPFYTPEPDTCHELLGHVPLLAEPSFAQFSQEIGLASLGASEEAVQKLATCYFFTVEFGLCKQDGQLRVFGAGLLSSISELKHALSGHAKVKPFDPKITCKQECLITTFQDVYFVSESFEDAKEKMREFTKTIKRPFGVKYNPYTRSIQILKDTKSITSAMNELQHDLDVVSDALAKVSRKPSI
Assay: biochemical
Method in brief: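 Inhibition is derived from 5-hydroxy-L-tryptophan fluorescence (540 nm emission, 300 nm excitation) after perchloric acid stop, relative to DMSO vehicle. Recombinant full-length human enzyme (40-80 nM) reacts with 40 μM tryptophan plus 100 μM methyltetrahydropterin, pH 7.6 Tris/DTT/catalase, 15° C, 60 min.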

IC50 [nM] | Compound
87 | Cc1noc(C)c1C1c2c(nc3cc(C(F)(F)F)ccn23)CCN1C(=O)COc1ccc2ccccc2c1 (centres unmarked) [Example 3.51.1, 1-(1-(3,5-dimethylisoxazol-4-yl)-7-(trifluoromethyl)-3,4-dihydroimidazo[1,2-a:5,4-c′]dipyridin-2(1H)-yl)-2-(naphthalen-2-yloxy)ethan-1-one]
127 | Cc1cc(C2c3c(nc4cc(C(F)(F)F)ccn34)CCN2C(=O)COc2ccc3ccccc3c2)ccc1F (centres unmarked) [Example 3.33.1, 1-(1-(4-fluoro-3-methylphenyl)-7-(trifluoromethyl)-3,4-dihydroimidazo[1,2-a:5,4-c′]dipyridin-2(1H)-yl)-2-(naphthalen-2-yloxy)ethan-1-one]
140 | COC(C)(C)c1ccc(C2c3c(nc4ccccn34)CCN2C(=O)COc2ccc(C(=O)NC3CC3)nc2Cl)c(F)c1 (centres unmarked) [Example 1.17.1, 6-chloro-N-cyclopropyl-5-(2-(1-(2-fluoro-4-(2-methoxypropan-2-yl)phenyl)-3,4-dihydroimidazo[1,2-a:5,4-c′]dipyridin-2(1H)-yl)-2-oxoethoxy)picolinamide]
9 | COc1cc(F)c(C2c3c(nc4cc(C(F)(F)F)ccn34)CCN2C(=O)COc2ccc3c(c2)CN(C(=O)OC(C)(C)C)CC3)cc1OC (centres unmarked) [Example 3.18.3, tert-butyl 7-(2-(1-(2-fluoro-4,5-dimethoxyphenyl)-7-(trifluoromethyl)-3,4-dihydroimidazo[1,2-a:5,4-c′]dipyridin-2(1H)-yl)-2-oxoethoxy)-3,4-dihydroisoquinoline-2(1H)-carboxylate]
154 | O=C(COc1ccc2ccccc2c1)N1CCc2nc3cc(C(F)(F)F)ccn3c2C1c1ccc(C(F)(F)F)cc1 (centres unmarked) [Example 3.28.1, 2-(naphthalen-2-yloxy)-1-(7-(trifluoromethyl)-1-(4-(trifluoromethyl)phenyl)-3,4-dihydroimidazo[1,2-a:5,4-c′]dipyridin-2(1H)-yl)ethan-1-one]
88 | O=C(COc1ccc(N2CCOCC2)cc1Cl)N1CCc2nc3cc(C(F)(F)F)ccn3c2C1c1ncccc1F (centres unmarked) [Example 3.21.3, 2-(2-chloro-4-morpholinophenoxy)-1-(1-(3-fluoropyridin-2-yl)-7-(trifluoromethyl)-3,4-dihydroimidazo[1,2-a:5,4-c′]dipyridin-2(1H)-yl)ethan-1-one]
387 | O=C(COc1ccc(N2CCOCC2)nc1Cl)N1CCc2nc3ccccn3c2C1c1cnc(N2CCOCC2)s1 (centres unmarked) [Example 1.6.1, 2-((2-chloro-6-morpholinopyridin-3-yl)oxy)-1-(1-(2-morpholinothiazol-5-yl)-3,4-dihydroimidazo[1,2-a:5,4-c′]dipyridin-2(1H)-yl)ethan-1-one]
153 | COc1ccc(C2c3c(nc4cc(C(F)(F)F)ccn34)CCN2C(=O)COc2ccccc2C)cc1OC (centres unmarked) [Example 3.1.5]
106 | COc1cc(C2c3c(nc4cc(C(F)(F)F)ccn34)CCN2C(=O)COc2ccc3ccccc3c2)ccc1OC(F)F (centres unmarked) [Example 3.14.1, 1-(1-(4-(difluoromethoxy)-3-methoxyphenyl)-7-(trifluoromethyl)-3,4-dihydroimidazo[1,2-a:5,4-c′]dipyridin-2(1H)-yl)-2-(naphthalen-2-yloxy)ethan-1-one]
39 | COc1ccc(C2c3c(nc4cc(Cl)ccn34)CCN2C(=O)COc2ccc3ccccc3c2)cc1OC (centres unmarked) [Example 2.1.1, 1-(7-chloro-1-(3,4-dimethoxyphenyl)-3,4-dihydroimidazo[1,2-a:5,4-c′]dipyridin-2(1H)-yl)-2-(naphthalen-2-yloxy)ethan-1-one hydrochloride]
287 | CS(=O)(=O)c1ccc(OCC(=O)N2CCc3nc4ccccn4c3C2c2ccc(Cl)cc2F)c(Cl)n1 (centres unmarked) [Example 1.4.14, 1-(1-(4-chloro-2-fluorophenyl)-3,4-dihydroimidazo[1,2-a:5,4-c′]dipyridin-2(1H)-yl)-2-((2-chloro-6-(methylsulfonyl)pyridin-3-yl)oxy)ethan-1-one]
